How the values were obtained:
[1] = molecular target: Neuronal acetylcholine receptor subunit alpha-7 (Bos taurus) (UniProt P54131); test: Displacement of [125I]alpha-bungarotoxin from bovine alpha7 nAChR expressed in HEK293 cells at 10 uM; type: cell-based
[2] = Inhibition of nicotin-stimulated neurosecretion in bovine adrenal gland; type: functional, tissue-based, Bos taurus, Adrenal tissue
[3] = molecular target: Neuronal acetylcholine receptor subunit alpha-3 (Bos taurus) (UniProt Q07263); test: Displacement of [3H]epibatidine from bovine […] nAChR expressed in HEK293 cells at 10 uM; type: cell-based
Sequence of Neuronal acetylcholine receptor subunit alpha-3 (Bos taurus) (Q07263 whole entry): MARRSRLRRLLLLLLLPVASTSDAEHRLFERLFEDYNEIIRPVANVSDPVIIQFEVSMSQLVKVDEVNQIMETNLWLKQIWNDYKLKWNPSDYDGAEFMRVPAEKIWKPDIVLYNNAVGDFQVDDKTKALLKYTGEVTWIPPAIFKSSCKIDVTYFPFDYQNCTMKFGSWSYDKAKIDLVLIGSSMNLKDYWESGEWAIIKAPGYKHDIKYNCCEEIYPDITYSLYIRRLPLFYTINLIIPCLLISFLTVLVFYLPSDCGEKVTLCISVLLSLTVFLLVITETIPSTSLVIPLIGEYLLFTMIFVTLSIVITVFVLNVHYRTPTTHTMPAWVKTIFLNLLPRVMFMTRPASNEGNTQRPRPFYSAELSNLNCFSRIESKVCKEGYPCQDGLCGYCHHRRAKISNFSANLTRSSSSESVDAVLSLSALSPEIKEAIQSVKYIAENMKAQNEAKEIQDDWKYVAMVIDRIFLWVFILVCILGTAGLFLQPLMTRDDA

[4] = molecular target: Neuronal acetylcholine receptor subunit alpha-7 (Bos taurus, UniProt P54131); test: Displacement of [125I]alpha-bungarotoxin from bovine alpha7 nAChR expressed in HEK293 cells; type: cell-based
Sequence of Neuronal acetylcholine receptor subunit alpha-7 (P54131 whole entry): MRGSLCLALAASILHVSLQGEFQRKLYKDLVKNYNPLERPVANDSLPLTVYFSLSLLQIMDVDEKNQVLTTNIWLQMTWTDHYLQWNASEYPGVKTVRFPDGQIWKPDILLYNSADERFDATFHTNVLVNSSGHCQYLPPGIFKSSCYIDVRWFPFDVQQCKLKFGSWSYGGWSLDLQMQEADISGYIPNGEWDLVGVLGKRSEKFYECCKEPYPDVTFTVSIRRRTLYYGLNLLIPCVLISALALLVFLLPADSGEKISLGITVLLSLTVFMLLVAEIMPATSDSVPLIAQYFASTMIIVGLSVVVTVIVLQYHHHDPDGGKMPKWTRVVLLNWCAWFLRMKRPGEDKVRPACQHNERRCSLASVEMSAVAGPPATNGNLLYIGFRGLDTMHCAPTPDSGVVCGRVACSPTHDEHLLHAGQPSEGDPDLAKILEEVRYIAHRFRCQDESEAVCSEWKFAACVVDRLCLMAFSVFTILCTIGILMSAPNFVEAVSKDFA

[5] = molecular target: Neuronal acetylcholine receptor subunit alpha-3 (Bos taurus) (UniProt Q07263); test: Displacement of [3H]epibatidine from bovine […] nAChR expressed in HEK293 cells at 1.0 uM; type: cell-based
[6] = molecular target: Neuronal acetylcholine receptor subunit alpha-7 (Bos taurus) (UniProt P54131); test: Displacement of [125I]alpha-bungarotoxin from bovine alpha7 nAChR expressed in HEK293 cells at 1.0 uM; type: cell-based

Sequence of Neuronal acetylcholine receptor subunit alpha-7 (Bos taurus) (P54131 whole entry): as above

SMILES	Activity [1]	Activity [3]	further results
CC1CC(=O)N(c2ccccc2C(=O)OC[C@@H]2C[C@H](CC3CCCCC3)CN(CCCc3ccccc3)C2)C1=O (stereo not given in full)	92.6%	–	–
CCCCCC[C@H]1C[C@@H](COC(=O)c2ccccc2N2C(=O)CC(C)C2=O)CN(CCCc2ccccc2)C1 (stereo not given in full)	92.2%	105%	IC50 [2]: 2 µM
CC1CC(=O)N(c2ccccc2C(=O)OC[C@@H]2C[C@H](CCc3ccccc3)CN(CCCc3ccccc3)C2)C1=O (stereo not given in full)	98.8%	103%	–
CC1CC(=O)N(c2ccccc2C(=O)OC[C@@H]2C[C@H](CCCCCO[Si](C)(C)C(C)(C)C)CN(CCCc3ccccc3)C2)C1=O (stereo not given in full)	88.8%	118%	IC50 [2]: 2 µM
CC1CC(=O)N(c2ccccc2C(=O)OC[C@@H]2C[C@H](C3CCCCC3)CN(CCCc3ccccc3)C2)C1=O (stereo not given in full)	103%	–	–
CC1CC(=O)N(c2ccccc2C(=O)OC[C@@H]2CCCN(CCCc3ccccc3)C2)C1=O (stereo not given in full)	–	–	IC50 [4]: 177 µM
CC1CC(=O)N(c2ccccc2C(=O)OC[C@@H]2C[C@H](c3ccccc3)CN(CCCc3ccccc3)C2)C1=O (stereo not given in full)	94.3%	86.8%	–
CCN1C[C@]2(COC(=O)c3ccccc3N3C(=O)C[C@H](C)C3=O)CC[C@H](OC)[C@@]34[C@@H]5C[C@H]6[C@H](OC)[C@@H]5[C@](O)(C[C@@H]6OC)[C@](O)([C@@H](OC)[C@H]23)[C@@H]14	–	–	Activity [5]: 50.1%; Activity [6]: 7.5%

Source: ChEMBL document CHEMBL1157154, “The synthesis of 5-substituted ring E analogs of methyllycaconitine via the Suzuki-Miyaura cross-coupling reaction” (Bioorg Med Chem, 2008)
